We go through 24 compounds from patent US8940740B2, “Small molecule inhibitors of bacterial motility and a high throughput screening assay for their identification” (priority 2010, dated 2015).

Assay [1] has as its system Vibrio cholerae strain C7258. In words: Bacterial viability/toxicity readout with alamarBlue in 384-well soft agar HTS assay. In kind it is cell-based. The following applies: for IC50: Vibrio cholerae, C7258, toxicity of compound to bacteria as measured by alamarBlue, read-out: Inhibition IC50. Background: The colour change of resazurin is a common sign of viable cells or microbes.

In assay [2] the test system is Vibrio cholerae strain C7258. In words: Bacterial motility in 384-well soft agar HTS assay, off-site OD615 reading. In kind it is cell-based. The following applies: for IC50: Vibrio cholerae, C7258, inhibition of bacterial motility, optical density read off-site from inoculation point, read-out: Motility OD IC50; for Control average OD615 in pilot screen: pilot screen control wells.

Assay [3] concerns Vibrio cholerae strain C7258. In words: Swarm agar plates stabbed with saturated cultures. The following applies: swarm agar stabbed with saturated culture of strain C7258. Type of assay: cell-based.
For assay [4], the system named is Vibrio cholerae strain C7258. In words: Growth of strain C7258 in broth containing test compound. Conditions: strain C7258, LB medium; Q24DA 10 μg/mL (FIG. 2). Type of assay: cell-based.
Assay [5] relates to polar flagellum / flagellin FlaA of V. cholerae strain C7258. In words: Flagellum assembly by transmission electron microscopy and FlaA western blot. In kind it is cell-based, Vibrio cholerae.
Assay [6] deals with cholera toxin and toxin-co-regulated pilus production by strain C7258. Type of assay: cell-based, Vibrio cholerae.
Assay [7] concerns V. cholerae biofilm formation. In kind it is cell-based, Vibrio cholerae.
The subject of assay [8] is V. cholerae 0395, V. parahaemolyticus, V. vulnificus. In words: Swarm agar plates with different pathogenic Vibrios. In kind it is cell-based, Vibrio. Conditions: polar (SMF) vs lateral (PMF) flagellum. From the text:
V. cholerae and V. vulnificus make a single polar flagellum (Fla) powered by sodium motive force (SMF). […] (A) V. cholerae 0395; (B) V. parahaemolyticus B22 (Fla^+ Laf^+); (C) V. parahaemolyticus LM5674 (Fla^+ Laf^+); (D) V. parahaemolyticus LM1017 (Fla^+ Laf^−); (E) V. parahaemolyticus LM5392 (Fla^− Laf^+); (F) V. parahaemolyticus 7890 (Fla^+ Laf^−); (G) V. vulnificus LAM624.

In assay [9] the test system is Vibrio cholerae strain C7258. Put plainly: Growth with PMF blocked by CCCP (Na+ bioenergetics). Type of assay: cell-based. Conditions: LB pH 8.6, 0.3 M NaCl, CCCP 5 μM, Q24DA 10 μg/mL.
The mark [10] stands for this setting: assay validation, phenamil at 100 μM.

The structures appear in SMILES notation. In brackets after ≈: the same amount, converted by molar mass.

In general, IC50 refers to the midpoint of a concentration-inhibition curve. As for `Cc1ccc(C)c(Nc2nc(NCCO)c3ccccc3n2)c1` [AB00343282], the 50% inhibitory concentration (IC50) in assay [1] was found to be 25.7 µg/mL (≈ 83.2 µM); in assay [2], 8.76 µg/mL (≈ 28.4 µM). Besides, the “Motility in swarm agar (spread from inoculation site)” value in [3] (listed as Q24DA) is reported as “motility inhibition”; in [3] (listed as quinazoline 2,4 diamine) it was “completely abolished motility”. Besides, the “Effect on growth rate in broth” value in assay [4] is recorded as “no effect on growth rate”. For the same compound, the “Level of expression of major flagellin protein FlaA” value in assay [5] (Western blot analysis) was “nor did it affect”. Further, the “Expression, secretion and assembly of wild type flagellum” value in assay [5] (transmission electron microscopy) was “does not inhibit”. Also, the “V. cholerae virulence gene expression” value in assay [6] was “inhibits V. cholerae virulence gene expression”. The Biofilm formation result in [7] was “negative effect on biofilm formation”. The “Flagellum specificity among pathogenic Vibrios” value in assay [8] is “specific for the polar flagellum powered by SMF”. In assay [9], the “Effect on growth inhibition by blocking the PMF” value is on record as “enhances the inhibitory effect of blocking the PMF”.

Regarding `COc1ccc(C)cc1Nc1nc(N)c2ccccc2n1` [compound 27284], the IC50 in assay [1] is > 100 µg/mL; in assay [2], 81.2 µg/mL (≈ 290 µM).

Take `Cc1ccc(Nc2nc(NCc3ccco3)c3ccccc3n2)cc1` [compound 27296]: the half-maximal inhibitory concentration (IC50) came out at 11.1 µg/mL (≈ 33.5 µM) in [1] and 3.77 µg/mL (≈ 11.4 µM) in assay [2].

Turning to `Oc1ccccc1Nc1nc(NCc2ccco2)c2ccccc2n1` [compound 27297], the IC50 amounted to 81.9 µg/mL (≈ 246 µM) in assay [1] and 37.8 µg/mL (≈ 114 µM) in assay [2].

With `Fc1ccccc1Nc1nc(NCc2ccccc2)c2ccccc2n1` [compound 27299], the IC50 in assay [1] was 100 µg/mL (≈ 290 µM); in [2], 6.37 µg/mL (≈ 18.5 µM).

On to `COc1ccc(Nc2nc(N3CCCC3)nc3ccccc23)c(OC)c1` [compound 27301], for which the IC50 in assay [1] is 82 µg/mL (≈ 234 µM); in assay [2] it was 46.6 µg/mL (≈ 133 µM).

For the compound `c1ccc(CN2CCN(c3nc(NCc4ccco4)c4ccccc4n3)CC2)cc1` [compound 27307], the IC50 was determined as 37.9 µg/mL (≈ 94.8 µM) in assay [1] and 34.9 µg/mL (≈ 87.3 µM) in assay [2].

`O=[N+]([O-])c1ccc(N2CCN(c3nc(N4CCN(CCO)CC4)nc4ccccc34)CC2)cc1` [compound 27310]: the half-maximal inhibitory concentration (IC50) in [1] came out at 55.4 µg/mL (≈ 120 µM); in [2] it was 77.2 µg/mL (≈ 167 µM).

Take `OCCNc1nc(NCc2ccco2)nc2ccccc12` [compound 27908]: the IC50 is > 100 µg/mL in assay [1] and 45.6 µg/mL (≈ 160 µM) in [2].

Consider `OCCNc1nc(Nc2cccc(O)c2)nc2ccccc12` [compound 27910], for which the IC50 in assay [1] is 47 µg/mL (≈ 159 µM); in assay [2], 22.2 µg/mL (≈ 74.8 µM).

`OCCNc1nc(Nc2ccccc2O)nc2ccccc12` [compound 27911]: the 50% inhibitory concentration (IC50) was 34.2 µg/mL (≈ 116 µM) in assay [1] and 29.5 µg/mL (≈ 99.7 µM) in assay [2].

Consider `OCCNc1nc(Nc2ccccc2F)nc2ccccc12` [compound 27912], for which the IC50 is 14.4 µg/mL (≈ 48.4 µM) in assay [1] and 4.89 µg/mL (≈ 16.4 µM) in assay [2].

With `Cc1cc(C)cc(Nc2nc(NCCO)c3ccccc3n2)c1` [compound 27914], the IC50 in assay [1] was found to be 10.1 µg/mL (≈ 32.6 µM); in assay [2] it was 6.96 µg/mL (≈ 22.6 µM).

Turning to `Cc1ccc(O)c(Nc2nc(NCCO)c3ccccc3n2)c1` [compound 27915], the concentration for half-maximal inhibition (IC50) in [1] was determined as 23 µg/mL (≈ 74.2 µM); in assay [2] it was 29.9 µg/mL (≈ 96.2 µM).

For `COc1ccccc1Nc1nc(NCCO)c2ccccc2n1` [compound 27916], the IC50 in [1] turned out to be 38.1 µg/mL (≈ 123 µM); in assay [2], 49.5 µg/mL (≈ 159 µM).

Turning to `OCCNc1nc(NCCc2cccs2)nc2ccccc12` [compound 27917], the values for the IC50 in [1] and in assay [2] were 27 µg/mL (≈ 85.9 µM) and 19.7 µg/mL (≈ 62.7 µM), respectively.

For `Cc1ccc(Nc2nc(NCCO)c3ccccc3n2)c(C)c1` [compound 27918], the IC50 came to 15.6 µg/mL (≈ 50.4 µM) in assay [1] and 6.1 µg/mL (≈ 19.8 µM) in assay [2].

On to `OCCNc1nc(Nc2ccc3c(c2)OCO3)nc2ccccc12` [compound 27919], for which the IC50 in assay [1] is 29.8 µg/mL (≈ 91.8 µM); in assay [2] it was 10.8 µg/mL (≈ 33.2 µM).

`c1coc(CNc2nc(NCC3CCCO3)c3ccccc3n2)c1` (stereo not drawn) [compound 27926]: the IC50 in assay [1] amounted to 35.6 µg/mL (≈ 110 µM); in assay [2] it was 24.7 µg/mL (≈ 76.2 µM).

As for `Oc1ccccc1Nc1nc(NCC2CCCO2)c2ccccc2n1` (stereo not drawn) [compound 27928], the concentration for half-maximal inhibition (IC50) in assay [1] came out at 19.4 µg/mL (≈ 57.6 µM); in assay [2], 16.5 µg/mL (≈ 49 µM).

Regarding `Cc1cc(C)cc(Nc2nc(NCC3CCCO3)c3ccccc3n2)c1` (stereo not drawn) [compound 27929], the IC50 in assay [1] worked out at 6.11 µg/mL (≈ 17.5 µM); in assay [2] it was 6.89 µg/mL (≈ 19.8 µM).

Consider `FC(F)(F)c1cccc(Nc2nc(NCC3CCCO3)c3ccccc3n2)c1` (stereo not drawn) [compound 27930], for which the IC50 in [1] came out at 81.2 µg/mL (≈ 209 µM); in [2], 7.59 µg/mL (≈ 19.5 µM).

For the compound `NC(=Nc1ccccc1)NC(=O)c1nc(Cl)c(N)nc1N` [phenamil, reference compound], the “Effect on viability (alamarBlue reading)” value in [1] (setting [10]) is “little effect on viability”. In addition, the “Effect on motility (OD615 reading)” value in assay [2] (setting [10]) is given as “inhibitory effect on motility”. The “Control average OD615 in pilot screen” value in assay [2] is “Ave-0.10 OD615, CV-3.2”.

With `CN(C)[C@@H]1C(O)=C(C(N)=O)C(=O)[C@@]2(O)C(O)=C3C(=O)c4c(O)cccc4[C@@](C)(O)[C@H]3C[C@@H]12` [tetracycline, reference compound], the “Control average OD615 in pilot screen” value in assay [2] was “Ave-0.10 OD615, CV-3.6”.
